Values after ≈ are worked out from the molar mass of the structure shown.
Experiments:
Enterococcus faecium = test: Compound was tested for its antibacterial activity against Enterococcus faecium (Vancomycin resistant, VRE) OC 3312.; assay type: functional
Enterococcus faecalis = test: Compound was tested for its antibacterial activity against Enterococcus faecalis OC 3041.; assay type: functional
[1] = target: T1, KinA/Spo0F (sporulation kinase A/sporulation initiation phosphotransferase F) (Bacillus subtilis (strain 168), UniProt P06628+P16497); test: Inhibition of histidine protein kinase (KinA) phosphorylation in the presence of response regulator (Spo0F); assay type: protein assay
T1 sequence (P06628 whole entry): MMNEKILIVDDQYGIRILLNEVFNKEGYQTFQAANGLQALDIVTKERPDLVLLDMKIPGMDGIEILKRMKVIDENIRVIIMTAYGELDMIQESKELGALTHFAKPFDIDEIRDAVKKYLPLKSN
T1 sequence (P16497 whole entry): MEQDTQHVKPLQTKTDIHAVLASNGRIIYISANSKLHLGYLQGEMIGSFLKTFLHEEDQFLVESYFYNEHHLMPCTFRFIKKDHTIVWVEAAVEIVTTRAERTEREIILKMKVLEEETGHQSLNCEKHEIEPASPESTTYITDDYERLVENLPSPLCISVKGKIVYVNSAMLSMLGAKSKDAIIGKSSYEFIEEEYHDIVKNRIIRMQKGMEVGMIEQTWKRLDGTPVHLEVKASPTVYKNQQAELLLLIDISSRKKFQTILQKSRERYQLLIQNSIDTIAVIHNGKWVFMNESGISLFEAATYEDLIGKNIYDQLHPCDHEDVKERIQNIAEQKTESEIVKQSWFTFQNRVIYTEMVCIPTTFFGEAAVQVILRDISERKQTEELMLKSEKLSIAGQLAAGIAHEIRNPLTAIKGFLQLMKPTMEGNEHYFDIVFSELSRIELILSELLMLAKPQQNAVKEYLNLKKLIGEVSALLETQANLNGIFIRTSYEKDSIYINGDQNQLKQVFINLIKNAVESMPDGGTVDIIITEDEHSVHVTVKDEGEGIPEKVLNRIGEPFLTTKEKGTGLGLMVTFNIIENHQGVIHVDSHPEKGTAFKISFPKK

Staphylococcus aureus [2] = test: Compound was tested for its antibacterial activity against MRSA (methicillin resistant) OC 2089.; assay type: functional
Staphylococcus aureus [3] = test: Compound was tested for its antibacterial activity against Staph aureus ATCC 29213.; assay type: functional
[4] = Partition coefficient (logP); assay type: physicochemical; settings: octanol/water

Row | SMILES | IC50 [1] [µM] | MIC (Enterococcus faecium) [µg/mL] | further results
1 | O=C(Nc1cc(Cl)cc(Cl)c1O)c1ccc(Cl)c(Cl)c1 | > 500 | 1 (≈ 2.85 µM) | MIC (Enterococcus faecalis): 2 µg/mL (≈ 5.7 µM); MIC (Staphylococcus aureus [2]): 0.25 µg/mL (≈ 0.712 µM); MIC (Staphylococcus aureus [3]): 0.5 µg/mL (≈ 1.42 µM)
2 | O=C(Nc1ccc(Cl)c(Cl)c1)c1cc(Cl)c(O)c(Cl)c1 | 98 | 64 (≈ 182 µM) | MIC (Enterococcus faecalis): 64 µg/mL (≈ 182 µM); MIC (Staphylococcus aureus [2]): 16 µg/mL (≈ 45.6 µM); MIC (Staphylococcus aureus [3]): 16 µg/mL (≈ 45.6 µM)
3 | Cc1cc(N(C)C(=O)c2cc(I)cc(I)c2O)c(Cl)cc1C(C#N)c1ccc(Cl)cc1 (stereo unspecified) | > 500 |  | 
4 | O=C(Nc1ccc(Cl)c(Cl)c1)c1cc(Cl)cc(Cl)c1O [3,3',4',5-TETRACHLOROSALICYLANILIDE] | 45 | 0.5 (≈ 1.42 µM) | logP [4]: 4.8; MIC (Enterococcus faecalis): 0.5 µg/mL (≈ 1.42 µM); MIC (Staphylococcus aureus [2]): 0.25 µg/mL (≈ 0.712 µM); MIC (Staphylococcus aureus [3]): 0.5 µg/mL (≈ 1.42 µM)
5 | Cc1cc(NC(=O)c2cc(I)c(O)c(I)c2)c(Cl)cc1C(C#N)c1ccc(Cl)cc1 (stereo unspecified) | 9 |  | 
6 | CN[C@H](CC(C)C)C(=O)N[C@H]1C(=O)N[C@@H](CC(N)=O)C(=O)N[C@H]2C(=O)N[C@H]3C(=O)N[C@H](C(=O)N[C@H](C(=O)O)c4cc(O)cc(O)c4-c4cc3ccc4O)[C@H](O)c3ccc(c(Cl)c3)Oc3cc2cc(c3O[C@@H]2O[C@H](CO)[C@@H](O)[C@H](O)[C@H]2O[C@H]2C[C@](C)(N)[C@H](O)[C@H](C)O2)Oc2ccc(cc2Cl)[C@H]1O [VANCOMYCIN] |  | > 128 | 
7 | COc1c(I)cc(I)cc1C(=O)Nc1cc(C)c(C(C#N)c2ccc(Cl)cc2)cc1Cl (stereo unspecified) | > 500 |  | 
8 | Cc1onc(-c2ccccc2)c1C(=O)N[C@@H]1C(=O)N2[C@@H]1SC(C)(C)[C@@H]2C(=O)O [OXACILLIN] |  | > 64 | MIC (Enterococcus faecalis): 16 µg/mL (≈ 39.9 µM); MIC (Staphylococcus aureus [2]): > 64 µg/mL; MIC (Staphylococcus aureus [3]): 0.25 µg/mL (≈ 0.623 µM)

Second part, led by results:

Row | IC50 [1] [µM] | SMILES | MIC (Enterococcus faecium) [µg/mL] | further results
9 | > 500 | O=C(Nc1ccc(Cl)c(Cl)c1)c1cc(Cl)cc(Cl)c1 |  | 
10 | 385 | O=C(Nc1ccccc1)c1cc(Cl)cc(Cl)c1O |  | 
11 | 365 | O=C(Nc1ccc(Cl)c(Cl)c1)Nc1cc(Cl)cc(Cl)c1O |  | 
12 | > 500 | Oc1c(Cl)cc(Cl)cc1/C=C/c1ccc(Cl)c(Cl)c1 |  | 
13 | 22 | O=C(Nc1ccc(Cl)c(Cl)c1)c1cc(I)cc(I)c1O |  | 
14 | 4.8 | Cc1cc(NC(=O)c2cc(Cl)cc(Cl)c2O)c(Cl)cc1C(C#N)c1ccc(Cl)cc1 (stereo unspecified) |  | 
15 | > 500 | O=C(NCc1ccc(Cl)c(Cl)c1)c1cc(Cl)cc(Cl)c1O |  | 
